Molecular target: p70S6K(h) (Homo sapiens, UniProt P23443)
Assay: Enzyme Inhibition Assay (p70S6K(h))
Type: biochemical
Details: at 0.3 μM concentration
Procedure: Enzyme Inhibition Assay (p70S6K(h))
In a final reaction volume of 25 uL, p70S6K(h) (5-10 mU) is incubated with 8 mM MOPS pH 7.0, 0.2 mM EDTA, 100 iM KKRNRTLTV, 10 mM MgAcetate and [gamma-33P-ATP] (specific activity approx. 500 cpm/pmol, concentration as required). The reaction is initiated by the addition of the MgATP mix. After incubation for 40 minutes at room temperature, the reaction is stopped by the addition of 5 uL of a 3% phosphoric acid solution. 10 uL of the reaction is then spotted onto a P30 filtermat and washed three times for 5 minutes in 75 mM phosphoric acid and once in methanol prior to drying and scintillation counting.

Sequence of p70S6K(h) (P23443 whole entry): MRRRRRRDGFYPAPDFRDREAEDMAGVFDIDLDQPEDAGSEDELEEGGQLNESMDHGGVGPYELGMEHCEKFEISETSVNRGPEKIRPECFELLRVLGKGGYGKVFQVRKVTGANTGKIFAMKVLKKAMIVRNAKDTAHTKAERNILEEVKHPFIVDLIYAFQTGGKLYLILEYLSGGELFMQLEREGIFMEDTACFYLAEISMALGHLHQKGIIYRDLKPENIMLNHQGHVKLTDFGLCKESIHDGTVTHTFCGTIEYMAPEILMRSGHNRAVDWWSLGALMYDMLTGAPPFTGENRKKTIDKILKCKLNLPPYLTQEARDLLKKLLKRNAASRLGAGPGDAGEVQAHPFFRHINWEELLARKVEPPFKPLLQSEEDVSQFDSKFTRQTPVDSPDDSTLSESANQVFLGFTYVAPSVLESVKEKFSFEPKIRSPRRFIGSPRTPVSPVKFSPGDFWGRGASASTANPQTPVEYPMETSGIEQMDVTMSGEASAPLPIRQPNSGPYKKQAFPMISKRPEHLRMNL

Row | Structure (SMILES) | inhibition at 0.3 µM [%]
1 | Oc1nnc(Cl)c2cc(NCc3cccc(C(F)(F)F)c3)ccc12 [Example 24, 4-chloro-6-(3-trifluoromethyl-benzylamino)-phthalazin-1-ol] | > 50
2 | O=C(Nc1cccc(C(F)(F)F)c1)c1ccc2c(O)nnc(Cl)c2c1 [Example 26, 4-Chloro-1-hydroxy-phthalazine-6-carboxylic acid (3-trifluoromethyl-phenyl)-amide] | > 50
3 | O=C(Nc1cccc(C(F)(F)F)c1)c1ccc2c(O)nnc(I)c2c1 [Example 42, 4-Iodo-1-hydroxy-phthalazine-6-carboxylic acid (3-trifluoromethyl-phenyl)-amide] | > 50

Results, then the compound that gave them:

Row | inhibition at 0.3 µM [%] | Structure (SMILES)
4 | > 50 | O=c1[nH]nc(Cl)c2ccc(Nc3cccc(C(F)(F)F)c3)cc12 [Example 64, 4-Chloro-7-(3-trifluoromethyl-phenylamino)-2H-phthalazin-1-one]
5 | > 50 | O=c1[nH]nc(Cl)c2cc(NCc3cccc4c3OCCCO4)ccc12 [Example 107, 4-Chloro-6-[(3,4-dihydro-2H-benzo[b][1,4]dioxepin-6-ylmethyl)-amino]-2H-phthalazin-1-one]
6 | > 50 | O=c1[nH]nc(Cl)c2cc(N3CCN(c4ccccc4)CC3)ccc12 [Example 126, 4-Chloro-6-(4-phenyl-piperazin-1-yl)-2H-phthalazin-1-one]
